# Laboratory results from article PMC12431657, “Discovery and mechanistic insights of dibenzoylmethane as a broad spectrum inhibitor of coronavirus” (PLOS Pathogens, 2025).
# Several values for one entry are separate records, joined by “and”; a condition that tells them apart may be missing. Equal entries are not always repeated. Where two headings read alike, the source gives them in different places. Peptide text beside a SMILES is read from it. * marks the point of attachment. Cbz = O=C(OCc1ccccc1)*; CH2F = FC*
# What was measured:
# [1] = test system: HCoV-229E; assay: Antiviral activity in vitro, viral RNA copies by qRT-PCR, HCoV-229E in Huh-7 cells; type: cell-based; details: for EC50: Human coronavirus 229E, Huh-7, 24 h, read-out: EC50 HCoV-229E (Huh-7)
# [2] = test system: HCoV-229E; assay: Antiviral activity in vitro, qRT-PCR, HCoV-229E in MRC-5 cells; type: cell-based; details: for EC50: Human coronavirus 229E, MRC5, 24 h, read-out: EC50 HCoV-229E (MRC-5); for HCoV-229E, MRC-5: inhibition at the concentration (Fig2B): replicates
# [3] = test system: HCoV-OC43; assay: Antiviral activity in vitro, qRT-PCR, HCoV-OC43 in RD cells; type: cell-based; details: for EC50: Betacoronavirus 1, OC43, RD, 24 h, read-out: EC50 HCoV-OC43 (RD)
# [4] = test system: HCoV-OC43; assay: Antiviral activity in vitro, qRT-PCR, HCoV-OC43 in Huh-7 cells; type: cell-based; details: for EC50: Betacoronavirus 1, OC43, Huh-7, 24 h, read-out: EC50 HCoV-OC43 (Huh-7); for HCoV-OC43, Huh-7: inhibition at the concentration (Fig2B): replicates
# [5] = test system: HCoV-OC43; details: for number of viral RNA copies in HCoV-OC43-infected mice: columbianadin 50 mpk QD, erythromycin estolate 300 mpk QD
# [6] = test system: airway inflammation; details: 50 mpk; cited from earlier work
# [7] = erythromycin estolate exceeding 300 mpk, veratramine exceeding 10 mpk; cited from earlier work
# [8] = target: T1, caspase-6 (Homo sapiens, UniProt P55212); type: cell-based
# T1 construct: endogenous in cells
# T1 sequence (P55212 24-293): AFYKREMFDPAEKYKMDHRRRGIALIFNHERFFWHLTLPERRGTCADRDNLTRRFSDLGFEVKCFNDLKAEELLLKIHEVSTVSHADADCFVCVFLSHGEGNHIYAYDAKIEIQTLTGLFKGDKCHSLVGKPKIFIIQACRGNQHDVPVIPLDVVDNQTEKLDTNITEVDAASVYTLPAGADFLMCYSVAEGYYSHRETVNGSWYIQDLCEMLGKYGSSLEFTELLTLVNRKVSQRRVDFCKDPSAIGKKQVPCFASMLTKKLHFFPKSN
# [9] = test system: HCoV-OC43; type: cell-based
# [10] = test system: HCoV-OC43; assay: HCoV-OC43 nucleocapsid protein and caspase-6 in infected cells (Western blot); type: cell-based; details: cells pretreated with serially diluted compound
# [11] = test system: Huh-7 cells; design: unit not given beside the values
# [12] = test system: Huh-7 cells; assay: Cytotoxicity assay (CCK-8), Huh-7 cells
# [13] = test system: RD cells; type: cell-based
# [14] = test system: HCoV-OC43; assay: HCoV-OC43 replication in siRNA-transfected cells; type: cell-based; details: replicates
# [15] = conc. 0.1 (unit not given), replicates
# [16] = conc. 0.2 (unit not given), replicates
# [17] = conc. 0.7 (unit not given), replicates
# [18] = conc. 2.2 (unit not given), replicates
# [19] = conc. 6.7 (unit not given), replicates
# [20] = conc. 20 (unit not given), replicates
compound,measurement,setting,value
"C/C=C(/C)C(=O)OC(C)(C)[C@@H]1Cc2c(ccc3ccc(=O)oc23)O1 [Columbianadin, columbianadin]",EC50,[1],< 80 nM
same,"EC50 (229E, Huh-7): inhibition at the concentration",[1]; [15],58.8 and 59.6 and 58
same,"EC50 (229E, Huh-7): inhibition at the concentration",[1]; [16],70.5 and 77.4 and 76.1
same,"EC50 (229E, Huh-7): inhibition at the concentration",[1]; [17],68 and 72.5 and 61.2
same,"EC50 (229E, Huh-7): inhibition at the concentration",[1]; [18],74.2 and 70.6 and 86.9
same,"EC50 (229E, Huh-7): inhibition at the concentration",[1]; [19],89.7 and 91.5 and 80.4
same,"EC50 (229E, Huh-7): inhibition at the concentration",[1]; [20],92.4 and 94.9 and 95
same,EC50,[2],1550 nM
same,"HCoV-229E, MRC-5: inhibition at the concentration (Fig2B)",[2]; conc. 0.1 (unit not given),35.3 and 18.1 and 41.4
same,"HCoV-229E, MRC-5: inhibition at the concentration (Fig2B)",[2]; conc. 0.2 (unit not given),32.0 and 58.2
same,"HCoV-229E, MRC-5: inhibition at the concentration (Fig2B)",[2]; conc. 0.7 (unit not given),17.5 and 18.6 and 52.2
same,"HCoV-229E, MRC-5: inhibition at the concentration (Fig2B)",[2]; conc. 2.2 (unit not given),63.2 and 52.3 and 54.8
same,"HCoV-229E, MRC-5: inhibition at the concentration (Fig2B)",[2]; conc. 6.7 (unit not given),83.3 and 82.1 and 80.5
same,"HCoV-229E, MRC-5: inhibition at the concentration (Fig2B)",[2]; conc. 20.0 (unit not given),94.9 and 92.9 and 95.1
same,EC50,[3],2220 nM
same,"EC50 (OC43, RD): inhibition at the concentration",[3]; [15],-25.3 and -42.7 and -34.3
same,"EC50 (OC43, RD): inhibition at the concentration",[3]; [17],-23.9 and 2.7 and -3.5
same,"EC50 (OC43, RD): inhibition at the concentration",[3]; [18],49.6 and 48.7 and 52.3
same,"EC50 (OC43, RD): inhibition at the concentration",[3]; [19],93.7 and 94.2 and 94.0
same,"EC50 (OC43, RD): inhibition at the concentration",[3]; [20],99.8
same,EC50,[4],190 nM
same,"HCoV-OC43, Huh-7: inhibition at the concentration (Fig2B)",[4]; conc. 0.1 (unit not given),48.4 and 50.8 (2×)
same,"HCoV-OC43, Huh-7: inhibition at the concentration (Fig2B)",[4]; conc. 0.2 (unit not given),30.0 and 36.0 and 38.1
same,"HCoV-OC43, Huh-7: inhibition at the concentration (Fig2B)",[4]; conc. 0.7 (unit not given),73.5 and 75.0 and 75.6
same,"HCoV-OC43, Huh-7: inhibition at the concentration (Fig2B)",[4]; conc. 2.2 (unit not given),94.2 and 94.1 and 94.4
same,"HCoV-OC43, Huh-7: inhibition at the concentration (Fig2B)",[4]; conc. 6.7 (unit not given),98.5 (2×) and 98.6
same,"HCoV-OC43, Huh-7: inhibition at the concentration (Fig2B)",[4]; conc. 20.0 (unit not given),98.4 and 98.3 (2×)
same,Body weight changes,"[5]; Columbianadin 50 mpk oral QD, day 0, one value per mouse",99.0 (4×) and 102.0 (2×)
same,number of viral RNA copies in HCoV-OC43-infected mice,[5],did not significantly reduce
same,airway inflammation in mice,[6],suppress airway inflammation
"CCC(=O)O[C@H]1[C@H](O[C@@H]2[C@@H](C)[C@H](O[C@H]3C[C@@](C)(OC)[C@@H](O)[C@H](C)O3)[C@@H](C)C(=O)O[C@H](CC)[C@@](C)(O)[C@H](O)[C@@H](C)C(=O)[C@H](C)C[C@@]2(C)O)O[C@H](C)C[C@@H]1N(C)C [Erythromycin estolate, erythromycin estolate, reference compound]",EC50,[1],3040 nM
same,"EC50 (229E, Huh-7): inhibition at the concentration",[1]; [15],56.8 and 60.1 and 43.4
same,"EC50 (229E, Huh-7): inhibition at the concentration",[1]; [16],31.4 and 41.8 and 52.9
same,"EC50 (229E, Huh-7): inhibition at the concentration",[1]; [17],61.1 and 42.4 and 25.7
same,"EC50 (229E, Huh-7): inhibition at the concentration",[1]; [18],61.7 and 57.1 and 74.9
same,"EC50 (229E, Huh-7): inhibition at the concentration",[1]; [19],79.9 and 80.4 and 68.3
same,"EC50 (229E, Huh-7): inhibition at the concentration",[1]; [20],82.8 and 90.2 and 91.5
same,EC50,[2],9210 nM
same,"HCoV-229E, MRC-5: inhibition at the concentration (Fig2B)",[2]; conc. 0.1 (unit not given),0.6 and 0.5 and 1.3
same,"HCoV-229E, MRC-5: inhibition at the concentration (Fig2B)",[2]; conc. 0.2 (unit not given),18.6 and 2.4 and -3.2
same,"HCoV-229E, MRC-5: inhibition at the concentration (Fig2B)",[2]; conc. 0.7 (unit not given),2.2 and 1.5 and 26.7
same,"HCoV-229E, MRC-5: inhibition at the concentration (Fig2B)",[2]; conc. 2.2 (unit not given),3.2 and -1.4 and 0.1
same,"HCoV-229E, MRC-5: inhibition at the concentration (Fig2B)",[2]; conc. 6.7 (unit not given),0.7 and 0.9 and 1.2
same,"HCoV-229E, MRC-5: inhibition at the concentration (Fig2B)",[2]; conc. 20.0 (unit not given),90.1 and 91.7 and 86.2
same,EC50,[3],460 nM
same,"EC50 (OC43, RD): inhibition at the concentration",[3]; [15],-62.2 and -76.2 (2×)
same,"EC50 (OC43, RD): inhibition at the concentration",[3]; [16],31.5 and 23.3 and 28
same,"EC50 (OC43, RD): inhibition at the concentration",[3]; [17],73.9 and 79.2 and 79.3
same,"EC50 (OC43, RD): inhibition at the concentration",[3]; [18],69.6 and 71.7 and 71.9
same,"EC50 (OC43, RD): inhibition at the concentration",[3]; [19],83.9 and 85 and 84.5
same,"EC50 (OC43, RD): inhibition at the concentration",[3]; [20],98.4 and 98.5
same,EC50,[4],730 nM
same,"HCoV-OC43, Huh-7: inhibition at the concentration (Fig2B)",[4]; conc. 0.2 (unit not given),18.4 and 11.5 and -3.5
same,"HCoV-OC43, Huh-7: inhibition at the concentration (Fig2B)",[4]; conc. 0.7 (unit not given),62.9 and 63.5 and 57.4
same,"HCoV-OC43, Huh-7: inhibition at the concentration (Fig2B)",[4]; conc. 2.2 (unit not given),73.5 and 73.6 and 72.3
same,"HCoV-OC43, Huh-7: inhibition at the concentration (Fig2B)",[4]; conc. 6.7 (unit not given),95.6 and 95.5 and 95.7
same,"HCoV-OC43, Huh-7: inhibition at the concentration (Fig2B)",[4]; conc. 20.0 (unit not given),98.3 (2×) and 98.1
same,number of viral RNA copies in HCoV-OC43-infected mice,[5],did not significantly reduce
same,safe use in antitumour mouse models,[7],safely used
"Cc1c([C@H](C)[C@@H]2NC[C@@H](C)C[C@H]2O)ccc2c1C[C@H]1[C@H]2CC=C2C[C@@H](O)CC[C@@]21C [Veratramine, veratramine]","EC50 (229E, Huh-7): inhibition at the concentration",[1],93.4
same,EC50,[1],< 80 nM
same,EC50,[2],600 nM
same,"EC50 (OC43, RD): inhibition at the concentration",[3],99.8 and 99.2
same,EC50,[3],250 nM
same,EC50,[4],< 80 nM
same,Body weight changes,"[5]; mouse, in vivo",98.5
same,safe use in antitumour mouse models,[7],safely used
"CC[C@H](C)[C@H](NC(=O)[C@H](CCC(=O)OC)NC(=O)[C@@H](NC(=O)OCc1ccccc1)C(C)C)C(=O)N[C@@H](CC(=O)OC)C(=O)CF [Z-VEID-FMK, reference compound] (Cbz-VE(OMe)ID(OMe)-CH2F)",Caspase-6 activity (Fig5J),"[8]; time point 0, replicates",8.3 and 9.2 and 8.8
same,Caspase-6 activity (Fig5J),"[8]; time point 2, replicates",12.5 and 11.5 and 12.1
same,Caspase-6 activity (Fig5J),"[8]; time point 4, replicates",11.7 and 13.0 (2×)
same,Caspase-6 activity (Fig5J),"[8]; time point 6, replicates",9.9 and 10.2 and 9.5
same,Caspase-6 activity (Fig5J),"[8]; time point 8, replicates",9.8 and 9.0 and 8.1
same,antiviral activity in CASP6 knockout cell pools,[9]; RD cells,decreased
same,Viral inhibition (Fig5K),"[9]; concentration 2, RD-Scramble cells",58.3 and 64.9 and 64.7
same,Viral inhibition (Fig5K),"[9]; concentration 20, RD-Scramble cells",67.9 and 79.5 and 81.6
same,"virus replication (nucleocapsid protein, Western blot)",[10],inhibited virus replication
CCC/C=C1\OC(=O)C2=C1CC[C@H]1[C@H]3C=C4C(=O)O/C(=C\CCC)[C@@]4(CC3)[C@@H]21 [levistolide A],CC50 (Huh-7): dose-response value per replicate,[11],17.6
same,selectivity index (SI),[12],below 25
COc1c(CC=C(C)C)c(O)cc2oc(=O)c3c4ccc(O)cc4oc3c12 [neoglycyrol],CC50 (Huh-7): dose-response value per replicate,[11],37.8
same,selectivity index (SI),[12],below 25
COc1ccc2cc1Oc1ccc(cc1)C[C@H]1c3cc(c(OC)cc3CCN1C)Oc1c(OC)c(OC)cc3c1[C@H](C2)N(C)CC3 [tetrandrine],CC50 (Huh-7): dose-response value per replicate,[11]; human,114.8
same,selectivity index (SI),[12],below 25
CASP3-2 (sense CCCUGGACAACAGUUAUAATT; antisense UUAUAACUGUUGUCCAGGGTT; chemistry not given here),Relative mRNA content following siRNA knockdown,[13],0.000229 and 0.000196 and 0.000194 and 0.000282 and 0.000327 and 0.000307
same,"HCoV-OC43 replication in siRNA-transfected cells, inhibition",[14],3.7 and -8.9 and -0.3 and 15.3 and 18.4 and 14.9
CASP7-1 (sense GUGCCAAGAUGCAAGAUCUTT; antisense AGAUCUUGCAUCUUGGCACTT; chemistry not given here),Relative mRNA content following siRNA knockdown,[13],0.04453 and 0.02767 and 0.03038 and 0.03195 and 0.02491 and 0.0301
same,"HCoV-OC43 replication in siRNA-transfected cells, inhibition",[14],-1.2 and -4.0 and -5.1 and 6.9 and -3.2 and 8.5
CASP7-2 (sense GAGGAUUCAGCAAAUGAAGTT; antisense CUUCAUUUGCUGAAUCCUCTT; chemistry not given here),Relative mRNA content following siRNA knockdown,[13],0.04124 and 0.03671 and 0.03839 and 0.05589 and 0.05554 and 0.05883
same,"HCoV-OC43 replication in siRNA-transfected cells, inhibition",[14],-52.2 and -54.8 and -44.2 and 4.9 and 14.1
